Results taken from ChEMBL document CHEMBL1201862, “PubChem BioAssay data set” (2004).
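Step 1: Grow cells in 96-well plates. Step 2: Expose to compound for 48 hours at 5 concentrations. Step 3: Interpolate endpoints linearly; if unreached, use highest concentration. GI50: concentration for 50% inhibition of growth.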 The source made the active and inactive calls. No stated cut-off is given here; in the data, active = GI50 up to about 1.1 µM and inactive = higher.

Assays:
Assay in all cases: inhibition of tumour cell growth, NCI panel, 48 h
DMS-273 = tested on: DMS-273
M19-MEL = tested on: M19-MEL
Hs-578T = tested on: Hs-578T
DLD-1 = tested on: DLD-1
DMS-114 = tested on: DMS-114
T47D = tested on: T47D
RXF 631 = tested on: RXF 631
SNB-78 = tested on: SNB-78
HOP-18 = tested on: HOP-18

Measured: GI50

CCC(=O)OCOc1ccc(/C=C2\CCC(CN(C)C)C2=O)cc1 (centres undefined)
inactive: DMS-273 3.97 µM | M19-MEL 4.47 µM | Hs-578T 6.27 µM | DLD-1 2.19 µM | DMS-114 18.3 µM | T47D 3.52 µM | RXF 631 8.34 µM | SNB-78 9.68 µM | HOP-18 15.4 µM
